According to patent publication US6387427B1, “Method of preservation of a food product” (Nestec S.A., priority 2000, dated 2002):

How the values were obtained:
Assay type in all cases: cell-based
Bacillus cereus = experiment: Challenge test in BHI broth, single strain; conditions: for Bacterial growth (optical density 550 nm after 12 days): pH 5.6, 12° C.
Procedure: (§1) Commercial sodium acetate (Sigma) and the freeze-dried fermentate of the invention (pH 5.0) were tested in Brain Heart Infusion broth (BHI), using single and cocktail tests. BHI was added with:
(§2) (a) commercial sodium acetate at final concentrations of 0.25 and 0.5%;
(§3) (b) freeze dried fermentate (pH 5.0) at final concentrations of sodium acetate of 0.25 to 0.5%; and,
(§4) (c) a control sample consisted of BHI broth without sodium acetate.
(§5) For first samples, the pH of BHI broth with or without sodium acetate was adjusted to 5.6 with HCl (10%) and the samples filter-sterilized ([…], Millipore). For comparative samples, the pH was controlled at 7.0 and the sample filtered-sterilized.
(§6) The freeze-dried product was evaluated for its inhibitory actions against Gram-negative Gram-positive bacteria. Twenty-mL samples were inoculated with 10^4-10^5 cfu/mL of L. monocytogenes, B. cereus, E. coli, or S. typhimurium alone and combined. The samples were incubated at two conditions: at 30° C. for 24 h, and at 12° C. for 2 weeks.
(§7) The control samples consisted of samples with and without commercial sodium acetate.

Escherichia coli = experiment: Challenge test in BHI broth, single strain; conditions: for Bacterial growth (optical density 550 nm after 12 days): pH 5.6, 12° C.
Procedure: as §1, §2, §3, §4, §5, §6, §7

Listeria monocytogenes = experiment: Challenge test in BHI broth, single strain; conditions: for Bacterial growth (optical density 550 nm after 12 days): pH 5.6, 12° C.
Procedure: as §1, §2, §3, §4, §5, §6, §7

Salmonella typhimurium = experiment: Challenge test in BHI broth, single strain; conditions: for Bacterial growth (optical density 550 nm after 12 days): pH 5.6, 12° C.
Procedure: as §1, §2, §3, §4, §5, §6, §7

[1] = tested on: Cocktail (L. monocytogenes, Bacillus cereus, Escherichia coli, S. typhimurium); experiment: Challenge test in BHI broth, bacterial cocktail; conditions: for Bacterial growth (optical density 550 nm after 12 days): pH 5.6, 12° C.
Procedure: as §1, §2, §3, §4, §5, §6, §7
An additional challenge test was carried out on the bacterial cocktail strains of Listeria monocytogenes, Escheriachia coli, Bacillus cereus, and Salmonella typhimurium.

[2] = tested on: challenge bacteria (L. monocytogenes, B. cereus, E. coli, S. typhimurium); experiment: Challenge test in BHI broth, challenge bacteria overall; conditions: neutral pH (6.5 to 7.0) and 30° C.
Procedure: as §1, §2, §3, §4, §5, §6, §7

[3] = tested on: Gram-negative bacterial cocktail (3 E. Coli strains and 3 Salmonella strains); experiment: Challenge test in mashed potato, Gram-negative cocktail; conditions: 12° C.; for Microbial growth: mashed potato pH 5.6, 0.5%
Procedure: (§8) Five hundred grams of mashed potato were added to 500 g of distilled water and mixed thoroughly. The pH of the mixture was adjusted to pH 5.6 with 1N HCl. Three separate samples of 300 g of mashed potato were added with respectively, 0.5 % commercial sodium acetate, 0.5% of freeze dried fermentate and a control with no acetate. The three mashed potato samples (respectively with commercial acetate, fermentate and control) were heated at 70° C. for 5 min in a microwave and then dispatched aseptically in separate aliquots of 30 g each. The pH of all samples was checked before inoculation. Triplicate samples of each the three mashed potato aliquots were inoculated with 10^3-10^4 colony forming units per gram (cfu/g) of Gram-negative bacterial cocktail (3 E. Coli strains and 3 Salmonella strains), or L. monocytogenes cocktail and incubated at 12° C. for 2 weeks. Periodically, samples were withdrawn and bacterial counts were enumerated using BHI agar and incubated at 30° C. for 48 hours.
To confirm the effectiveness of the two sources of sodium acetate against Gram-negative bacteria, a cocktail of Gram-negative bacteria was used in a challenge experiment in mashed potato.

[4] = tested on: Listeria monocytogenes strains; experiment: Challenge test in mashed potato, L. monocytogenes cocktail; conditions: for Microbial growth: mashed potato pH 5.6, 0.5%, 12° C.
Procedure: as §8
To confirm the effectiveness of the two sources of sodium acetate against Listeria monocytogenes strains, another challenge experiment in mashed potato was performed.

[5] = 0.25% sodium acetate, pH 5.6, 30° C.
[6] = 0.25% sodium acetate, pH 7.0, 30° C.
[7] = 0.5% sodium acetate, pH 5.6, 30° C.
[8] = 0.5% sodium acetate, pH 7.0, 30° C.

CC(=O)[O-].[Na+] [C, sodium acetate]
Bacterial growth (optical density 550 nm after 12 days) (Bacillus cereus; 0.25% sodium acetate): 0.017 | Bacterial growth (optical density 550 nm after 24 hrs) (Bacillus cereus; [5]): 0.068 | Bacterial growth (optical density 550 nm after 24 hrs) (Bacillus cereus; [6]): 0.325 | Bacterial growth (optical density 550 nm after 12 days) (Bacillus cereus; 0.5% sodium acetate): 0.017 | Bacterial growth (optical density 550 nm after 24 hrs) (Bacillus cereus; [7]): 0.042 | Bacterial growth (optical density 550 nm after 24 hrs) (Bacillus cereus; [8]): 0.315 | Inhibitory effect on growth (in words) (Bacillus cereus; pH 5.6 and below): exhibited inhibitory effects | Bacterial growth (optical density 550 nm after 12 days) (Escherichia coli; 0.25% sodium acetate): 0.017 | Bacterial growth (optical density 550 nm after 24 hrs) (Escherichia coli; [5]): 0.231 | Bacterial growth (optical density 550 nm after 24 hrs) (Escherichia coli; [6]): 0.589 | Bacterial growth (optical density 550 nm after 12 days) (Escherichia coli; 0.5% sodium acetate): 0.013 | Bacterial growth (optical density 550 nm after 24 hrs) (Escherichia coli; [7]): 0.099 | Bacterial growth (optical density 550 nm after 24 hrs) (Escherichia coli; [8]): 0.587 | Inhibitory effect on growth (in words) (Escherichia coli; pH 5.6 and below): exhibited inhibitory effects | Bacterial growth (optical density 550 nm after 12 days) (Listeria monocytogenes; 0.25% sodium acetate): 0.212 | Bacterial growth (optical density 550 nm after 24 hrs) (Listeria monocytogenes; [5]): 0.216 | Bacterial growth (optical density 550 nm after 24 hrs) (Listeria monocytogenes; [6]): 0.429 | Bacterial growth (optical density 550 nm after 12 days) (Listeria monocytogenes; 0.5% sodium acetate): 0.220 | Bacterial growth (optical density 550 nm after 24 hrs) (Listeria monocytogenes; [7]): 0.063 | Bacterial growth (optical density 550 nm after 24 hrs) (Listeria monocytogenes; [8]): 0.399 | Bacterial growth (optical density 550 nm after 12 days) (Salmonella typhimurium; 0.25% sodium acetate): 0.010 | Bacterial growth (optical density 550 nm after 24 hrs) (Salmonella typhimurium; [5]): 0.089 | Bacterial growth (optical density 550 nm after 24 hrs) (Salmonella typhimurium; [6]): 0.645 | Bacterial growth (optical density 550 nm after 12 days) (Salmonella typhimurium; 0.5% sodium acetate): 0.013 | Bacterial growth (optical density 550 nm after 24 hrs) (Salmonella typhimurium; [7]): 0.020 | Bacterial growth (optical density 550 nm after 24 hrs) (Salmonella typhimurium; [8]): 0.600 | Inhibitory effect on growth (in words) (Salmonella typhimurium; pH 5.6 and below): exhibited inhibitory effects | Bacterial growth (optical density 550 nm after 12 days) ([1]; 0.25% sodium acetate): 0.287 | Bacterial growth (optical density 550 nm after 12 days) ([1]; 0.5% sodium acetate): 0.266 | Inhibition of the bacterial cocktail (in words) ([1]; pH 5.6 and at 2° C. (so in the source), both concentrations): failed to inhibit | Inhibition of the challenge bacteria (in words) [2]: neither commercial sodium acetate nor the fermentate inhibit | Microbial growth ([3]; day 0): 4.6 Log10 cfu/g | Microbial growth ([3]; day 2): 4.6 Log10 cfu/g | Microbial growth ([3]; day 5): 4.5 Log10 cfu/g | Microbial growth ([3]; day 7): 4.5 Log10 cfu/g | Microbial growth ([3]; day 9): 4.1 Log10 cfu/g | Inhibitory effectiveness on growth of Gram-negative cocktail (in words) ([3]; mashed potato): inhibitory effectiveness | Microbial growth ([4]; day 0): 3.1 Log10 cfu/g | Microbial growth ([4]; day 2): 4.4 Log10 cfu/g | Microbial growth ([4]; day 5): 4.3 Log10 cfu/g | Microbial growth ([4]; day 7): 4.9 Log10 cfu/g | Microbial growth ([4]; day 14): 7.5 Log10 cfu/g | Delay of growth of Listeria monocytogenes (in words) ([4]; mashed potato, 14 days of incubation at 12° C.): unable to delay the growth of this organism for more than a week
